Experimental data as given in ChEMBL document CHEMBL5370693, “Kinases Controlling Stability of the Oncogenic MYCN Protein” (ACS Med Chem Lett, 2023).
Calls of active or inactive are those of the source. No cut-off for these calls is given here.

Legend:
[1] = molecular target: Serine/threonine-protein kinase 38-like (Homo sapiens) (UniProt Q9Y2H1); assay: Binding affinity to STK38L in human SKNBE2 cells assessed as effect on thermal stability at 49 degC incubated for 3 hrs by CETSA assay; format: cell-based
[2] = molecular target: Casein kinase II subunit alpha (Homo sapiens) (UniProt P68400); assay: Inhibition of CSNK2A1 (unknown origin) assessed as remaining activity at 15 uM incubated for 1 hr by KINOMEscan competitive binding assay relative to control
[3] = tested on: Phosphatidylinositol 4,5-bisphosphate 3-kinase catalytic subunit alpha isoform (Homo sapiens), P42336 [E545A]; assay: Inhibition of PIK3CA E545A mutant (unknown origin) assessed as remaining activity at 15 uM incubated for 1 hr by KINOMEscan competitive binding assay relative to control
[4] = molecular target: Phosphatidylinositol 4,5-bisphosphate 3-kinase catalytic subunit alpha isoform (Homo sapiens) (UniProt P42336); assay: Inhibition of PIK3CA (unknown origin) assessed as remaining activity at 15 uM incubated for 1 hr by KINOMEscan competitive binding assay relative to control
[5] = molecular target: T1, Phosphatidylinositol 3-kinase C2 domain-containing subunit gamma (Homo sapiens) (UniProt O75747); assay: Inhibition of PIK3C2G (unknown origin) assessed as remaining activity at 15 uM incubated for 1 hr by KINOMEscan competitive binding assay relative to control
T1 sequence (whole entry): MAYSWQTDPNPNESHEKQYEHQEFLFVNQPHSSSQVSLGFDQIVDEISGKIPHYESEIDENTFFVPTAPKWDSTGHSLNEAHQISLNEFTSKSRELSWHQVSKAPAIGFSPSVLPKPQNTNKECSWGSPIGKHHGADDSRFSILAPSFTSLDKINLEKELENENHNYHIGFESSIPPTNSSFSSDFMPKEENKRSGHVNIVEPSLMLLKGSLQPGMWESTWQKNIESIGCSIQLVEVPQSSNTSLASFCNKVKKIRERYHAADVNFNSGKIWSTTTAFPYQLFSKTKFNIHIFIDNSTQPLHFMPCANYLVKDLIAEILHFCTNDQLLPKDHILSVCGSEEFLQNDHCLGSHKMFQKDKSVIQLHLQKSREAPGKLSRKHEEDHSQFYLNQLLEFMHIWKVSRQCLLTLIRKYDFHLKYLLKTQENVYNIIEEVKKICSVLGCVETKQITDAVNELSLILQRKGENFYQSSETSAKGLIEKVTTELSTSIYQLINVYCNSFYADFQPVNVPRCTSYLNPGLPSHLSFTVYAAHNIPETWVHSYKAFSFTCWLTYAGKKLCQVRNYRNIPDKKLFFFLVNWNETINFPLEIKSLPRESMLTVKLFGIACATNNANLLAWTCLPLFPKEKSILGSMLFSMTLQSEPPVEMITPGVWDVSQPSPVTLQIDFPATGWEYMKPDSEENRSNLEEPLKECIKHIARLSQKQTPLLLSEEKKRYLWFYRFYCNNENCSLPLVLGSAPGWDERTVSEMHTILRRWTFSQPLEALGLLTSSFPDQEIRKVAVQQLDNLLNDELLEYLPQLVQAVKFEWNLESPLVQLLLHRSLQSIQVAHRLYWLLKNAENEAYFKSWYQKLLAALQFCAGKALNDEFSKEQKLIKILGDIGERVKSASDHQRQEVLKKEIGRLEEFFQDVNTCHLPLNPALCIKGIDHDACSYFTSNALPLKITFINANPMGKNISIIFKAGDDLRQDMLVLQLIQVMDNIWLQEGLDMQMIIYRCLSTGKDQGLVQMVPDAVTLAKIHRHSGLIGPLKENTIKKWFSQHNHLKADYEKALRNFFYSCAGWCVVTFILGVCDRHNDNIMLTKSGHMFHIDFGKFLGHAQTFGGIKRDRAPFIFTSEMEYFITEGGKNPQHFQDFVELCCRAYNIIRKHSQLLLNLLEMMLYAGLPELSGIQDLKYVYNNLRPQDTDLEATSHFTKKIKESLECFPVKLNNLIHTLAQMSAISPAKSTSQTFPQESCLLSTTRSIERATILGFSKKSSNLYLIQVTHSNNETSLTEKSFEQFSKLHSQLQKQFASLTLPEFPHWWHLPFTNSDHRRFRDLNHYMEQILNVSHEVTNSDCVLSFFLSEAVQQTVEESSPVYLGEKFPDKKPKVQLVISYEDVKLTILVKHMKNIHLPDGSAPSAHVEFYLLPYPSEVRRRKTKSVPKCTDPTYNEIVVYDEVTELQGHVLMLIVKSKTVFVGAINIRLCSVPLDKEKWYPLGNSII

[6] = tested on: Phosphatidylinositol 4,5-bisphosphate 3-kinase catalytic subunit alpha isoform (Homo sapiens), P42336 [H1047Y]; assay: Inhibition of PIK3CA H1047Y mutant (unknown origin) assessed as remaining activity at 15 uM incubated for 1 hr by KINOMEscan competitive binding assay relative to control
[7] = molecular target: Phosphatidylinositol 4-phosphate 3-kinase C2 domain-containing subunit beta (Homo sapiens) (UniProt O00750); assay: Inhibition of PIK3C2B (unknown origin) assessed as remaining activity at 15 uM incubated for 1 hr by KINOMEscan competitive binding assay relative to control
[8] = molecular target: Phosphatidylinositol 4,5-bisphosphate 3-kinase catalytic subunit beta isoform (Homo sapiens) (UniProt P42338); assay: Inhibition of PIK3CB (unknown origin) assessed as remaining activity at 15 uM incubated for 1 hr by KINOMEscan competitive binding assay relative to control
[9] = tested on: Phosphatidylinositol 4,5-bisphosphate 3-kinase catalytic subunit alpha isoform (Homo sapiens), P42336 [M1043I]; assay: Inhibition of PIK3CA M1043I mutant (unknown origin) assessed as remaining activity at 15 uM incubated for 1 hr by KINOMEscan competitive binding assay relative to control
[10] = molecular target: T2, Serine/threonine-protein kinase Chk1 (Homo sapiens) (UniProt O14757); assay: Inhibition of CHEK1 (unknown origin) assessed as remaining activity at 15 uM incubated for 1 hr by KINOMEscan competitive binding assay relative to control
T2 sequence (whole entry): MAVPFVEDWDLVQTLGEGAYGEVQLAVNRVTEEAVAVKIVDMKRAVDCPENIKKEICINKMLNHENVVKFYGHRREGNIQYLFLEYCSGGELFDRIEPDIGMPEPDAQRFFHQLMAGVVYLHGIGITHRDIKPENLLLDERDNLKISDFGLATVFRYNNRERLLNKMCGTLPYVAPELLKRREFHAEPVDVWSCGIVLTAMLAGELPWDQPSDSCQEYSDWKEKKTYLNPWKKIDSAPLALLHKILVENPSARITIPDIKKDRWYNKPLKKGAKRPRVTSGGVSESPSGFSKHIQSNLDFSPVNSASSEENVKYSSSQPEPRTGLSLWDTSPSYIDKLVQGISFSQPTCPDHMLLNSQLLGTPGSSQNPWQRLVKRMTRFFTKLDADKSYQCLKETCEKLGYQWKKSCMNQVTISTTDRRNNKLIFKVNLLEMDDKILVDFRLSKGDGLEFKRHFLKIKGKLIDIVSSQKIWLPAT

Phosphatidylinositol 4,5-bisphosphate 3-kinase catalytic subunit alpha isoform (Homo sapiens), P42336 [H1047Y], sequence (P42336 whole entry H1047Y, the tested form may be a part, canonical isoform): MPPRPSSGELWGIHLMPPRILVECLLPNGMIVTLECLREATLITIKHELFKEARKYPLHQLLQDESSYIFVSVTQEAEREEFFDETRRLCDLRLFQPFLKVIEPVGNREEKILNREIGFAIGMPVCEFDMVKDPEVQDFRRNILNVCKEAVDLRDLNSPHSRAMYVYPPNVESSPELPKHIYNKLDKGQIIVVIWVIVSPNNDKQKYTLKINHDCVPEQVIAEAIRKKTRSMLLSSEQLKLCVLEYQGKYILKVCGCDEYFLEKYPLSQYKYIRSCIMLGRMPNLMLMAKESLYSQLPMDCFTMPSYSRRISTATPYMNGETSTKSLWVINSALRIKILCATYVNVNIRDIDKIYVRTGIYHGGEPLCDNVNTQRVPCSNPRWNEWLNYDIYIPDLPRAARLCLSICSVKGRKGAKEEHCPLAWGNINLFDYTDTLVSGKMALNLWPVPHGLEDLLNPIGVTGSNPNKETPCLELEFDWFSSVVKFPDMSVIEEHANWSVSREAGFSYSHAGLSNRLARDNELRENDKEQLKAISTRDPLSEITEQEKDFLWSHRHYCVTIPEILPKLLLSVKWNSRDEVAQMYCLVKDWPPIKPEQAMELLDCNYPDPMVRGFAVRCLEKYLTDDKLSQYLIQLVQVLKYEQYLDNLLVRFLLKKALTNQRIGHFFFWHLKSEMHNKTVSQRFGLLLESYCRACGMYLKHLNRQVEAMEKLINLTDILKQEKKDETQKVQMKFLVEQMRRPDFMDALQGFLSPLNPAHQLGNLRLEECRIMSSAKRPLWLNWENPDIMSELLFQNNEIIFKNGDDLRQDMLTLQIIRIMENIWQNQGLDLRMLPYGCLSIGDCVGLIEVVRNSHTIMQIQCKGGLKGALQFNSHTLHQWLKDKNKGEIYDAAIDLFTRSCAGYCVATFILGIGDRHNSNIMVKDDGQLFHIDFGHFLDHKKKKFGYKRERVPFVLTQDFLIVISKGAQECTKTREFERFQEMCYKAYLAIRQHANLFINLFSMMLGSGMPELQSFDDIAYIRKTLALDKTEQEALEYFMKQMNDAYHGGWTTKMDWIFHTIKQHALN
Phosphatidylinositol 4,5-bisphosphate 3-kinase catalytic subunit alpha isoform (Homo sapiens), sequence (P42336 whole entry, the tested form may be a part, canonical isoform): as the sequence (P42336 whole entry H1047Y, the tested form may be a part, canonical isoform) above, with Y1047H counted along it
Serine/threonine-protein kinase 38-like (Homo sapiens), sequence (Q9Y2H1 2-464 limits assumed): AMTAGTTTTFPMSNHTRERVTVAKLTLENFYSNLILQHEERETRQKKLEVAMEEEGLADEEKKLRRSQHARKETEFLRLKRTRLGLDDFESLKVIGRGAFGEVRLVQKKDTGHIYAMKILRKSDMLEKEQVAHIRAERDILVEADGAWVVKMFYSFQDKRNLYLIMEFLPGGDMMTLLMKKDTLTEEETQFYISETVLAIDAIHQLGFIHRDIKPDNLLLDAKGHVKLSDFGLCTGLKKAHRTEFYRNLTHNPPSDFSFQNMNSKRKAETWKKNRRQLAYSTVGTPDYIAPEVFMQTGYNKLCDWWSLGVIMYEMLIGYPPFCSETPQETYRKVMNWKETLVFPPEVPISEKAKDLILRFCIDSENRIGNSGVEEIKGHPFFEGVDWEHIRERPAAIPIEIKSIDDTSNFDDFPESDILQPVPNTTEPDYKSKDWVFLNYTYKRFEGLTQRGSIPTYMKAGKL
Phosphatidylinositol 4,5-bisphosphate 3-kinase catalytic subunit alpha isoform (Homo sapiens), P42336 [E545A], sequence (P42336 whole entry E545A, canonical isoform): as the sequence (P42336 whole entry H1047Y, the tested form may be a part, canonical isoform) above, with E545A, Y1047H counted along it
Phosphatidylinositol 4,5-bisphosphate 3-kinase catalytic subunit alpha isoform (Homo sapiens), P42336 [M1043I], sequence (P42336 whole entry M1043I, canonical isoform): as the sequence (P42336 whole entry H1047Y, the tested form may be a part, canonical isoform) above, with M1043I, Y1047H counted along it

Activity [1]	Activity [2]	Activity [3]	Activity [4]	Activity [5]	Activity [6]	Activity [7]	Activity [8]	Activity [9]	Activity [10]	Compound
inactive	44%	100%	100%	75%	98%	100%	100%	77%	71%	CC(C)CCOc1ccc2c(=O)c(-c3ccc(O)c(O)c3)coc2c1
	14%	100%	91%	57%	98%	91%	92%	85%	88%	CC(C)CC(=O)Oc1ccc2occ(-c3ccc(O)c(O)c3)c(=O)c2c1
inactive										CC(C)=CCc1c2c(c3occ(-c4ccc(O)c(O)c4)c(=O)c3c1O)C=CC(C)(C)O2
